Here are results for three compounds from patent publication US11299482B2, “Salt and crystal form of modified andrographolide compound and preparation method thereof” (HEILONGJIANG ZHENBAODAO PHARMACEUTICAL CO, LTD, priority 2017, dated 2022).

The subject of series [1] is IFN-γ release from mouse spleen cells. Briefly: Release of IFN-γ from anti-CD3 stimulated mouse spleen cells (CBA). The format is cell-based. To be noted: anti-CD3, 24 hours, read-out: Inhibition rate, IFN-γ (Th1). As for the experimental part: (§1) Evaluate the inhibitory effect of the compound on the release of cytokines involved in the Th1 pathway such as IFN-γ and IL-2 from mouse spleen cells by measuring the levels of cytokines involved in the Th1 pathway such as IFN-γ and IL-2 in the culture supernatant of mouse spleen cells. Cells: spleen cells isolated from the spleens of normal C57BL/6 mice The anti-mouse CD3 antibody diluted to 5 μg/mL with DPBS was added to a 96-well plate at 100 μL/well. The culture plate was allowed to stand at 4° C. overnight; 1) The mice were sacrificed under aseptic conditions, and the spleens were collected and ground in a filter having a pore size of 70 μm. The obtained cell suspension was collected. 2) The cells were added to the wells coated with the anti-mouse CD3 antibody at 50 μL/well, i.e. 1×10^5 cells/well; and meanwhile, the cells were added to un-coated wells in the same amount, as a negative control; The compound was dissolved in DMSO to give a solution of 100 mM, and then the solution was diluted with DMSO to obtain 3 gradients, which were 30 mM, 10 mM, and 3 mM, respectively. For each gradient, 4 μl of the solution was added to 1 ml of culture medium to form a mixture with a concentration of 120 μM, 40 μM, or 12 μM, respectively. […] Then, the supernatant was collected, and the levels of IFN-γ and IL-2 therein were detected by CBA.

Series [2] concerns IL-13 release from mouse spleen cells. Briefly: Release of IL-13 (Th2 pathway) from mouse spleen CD4+ T cells (CBA). The class given is cell-based. Conditions: Th2 induction, 72 hours, read-out: Inhibition rate, IL-13 (Th2). As for the experimental part: Evaluate the inhibitory effect of the compound on LPS-induced release of cytokines involved in the Th2 pathway such as IL-13 from mouse spleen cells by measuring the levels of cytokines involved in the Th2 pathway such as IL-13 in the culture supernatant of mouse spleen cells. Cells: CD4+ cells isolated and sorted from the spleens of normal C57BL/6 mice The anti-mouse CD3 antibody diluted to 5 μg/mL with DPBS was added to a 96-well plate at 100 μL/well. The culture plate was allowed to stand at 4° C. overnight; 6) CD4+ T cells were isolated by using the Mouse CD4+ T Cell Isolation Kit, and the isolated cells were adjusted to a concentration of […]; 8) The isolated CD4+ T cells were added to the wells coated with the anti-CD3 antibody at 50 μL/well, i.e. 1×10^5 cells/well; and meanwhile, the CD4+ T cells were added to un-coated wells in the same amount, as a negative control; The mouse anti-IFNγ antibody and anti-IL-12 antibody were simultaneously added to the culture medium both at a concentration of 40 μg/mL, and mouse IL-4 was added thereto at a concentration of 40 ng/mL. An induction solution was prepared and added to the wells that had been plated with cells and coated with anti-CD3 antibody at 50 μL/well. […] Then, the supernatant was collected, and the level of IL-13 therein was detected by CBA.

The test system of series [3] is IL-2 release from mouse spleen cells. Briefly: Release of IL-2 from anti-CD3 stimulated mouse spleen cells (CBA). Conditions: anti-CD3, 24 hours, read-out: Inhibition rate, IL-2 (Th1). The format is cell-based. As for the experimental part:
as §1

Series [4] deals with left unilateral pulmonary fibrosis. Nature of the series: SD rat model of left unilateral pulmonary fibrosis. The class given is in vivo.
The test system of series [5] is TGF-β release from mouse peritoneal macrophages. Nature of the series: Release of TGF-β from mouse peritoneal macrophages (ELISA). The class given is cell-based. To be noted: Peritoneal macrophage, 24 hours, read-out: Inhibition rate, fibrosis factor TGF-β. The protocol: Evaluate the inhibitory effect of the compound on the release of TGF-β from mouse peritoneal macrophages by measuring the level of TGF-β in the culture supernatant of mouse peritoneal macrophages. Cells: Macrophages collected by peritoneal lavage of normal Balb/c mice 7) The macrophages were added to a 48-well plate at 250 μL/well, i.e. 4×10^5 cells/well; 2) A stimulating solution containing TNFα and IL-13 both at a concentration of 80 ng/mL was prepared with serum-free medium, and added to the wells plated with cells at 125 μL/well. Three wells were left without the addition of the stimulating solution and used as a blank control; The compound was dissolved in DMSO to give a solution of 100 mM, and then the solution was diluted with DMSO to obtain 3 gradients, which were 30 mM, 10 mM, and 3 mM, respectively. For each gradient, 4 μl of the solution was added to 1 ml of culture medium to form a mixture with a concentration of 120 μM, 40 μM, or 12 μM, respectively. 125 μl of the mixture was added to a corresponding well to a final concentration of 30 μM, 10 μM, or 3 μM, respectively. Dexamethasone was added as a positive drug to a separate well containing cells at a final concentration of 100 nM. […] Then, the supernatant was collected, and the level of TGF-β therein was detected by ELISA.

Series [6] is described as follows: Study on polymorphism of the compound of Formula (II) (stirring in solvent, XRPD). To be noted: stirred at 40° C. for 2 days in the dark. The format is physicochemical. As for the experimental part:
The compound of Formula (II) was dissolved in a corresponding solvent and stirred at 40° C. for 2 days in the dark. The solution was then centrifuged to obtain a precipitate which was dried and subjected to XRPD detection.

In series [7] the test system is IL-6 release from mouse spleen cells. Nature of the series: LPS-induced release of IL-6 from mouse spleen cells (CBA). Conditions: 24 hours, read-out: Inhibition rate, IL-6 (Th1). The class given is cell-based. The text has this:
(§2) Evaluate the inhibitory effect of the compound on LPS-induced release of cytokines involved in the Th1 pathway such as TNF-α and IL-6 from mouse spleen cells by measuring the levels of the cytokines involved in the Th1 pathway such as TNF-α and IL-6 in the culture supernatant of mouse spleen cells. Cells: spleen cells isolated from the spleens of normal C57BL/6 mice 1) The mice were sacrificed under aseptic conditions, and the spleens were collected and ground in a filter having a pore size of 70 μm. The obtained cell suspension was collected. 6) The cells were added to a 96-well plate (100 μL/well, 1×10^5 cells/well); LPS was formulated with culture medium into a 4 μg/ml solution, and then the solution was added to the cell culture well at 50 μl per well. The compound was dissolved in DMSO to give a solution of 100 mM, and then the solution was diluted with DMSO to obtain 3 gradients, which were 30 mM, 10 mM, and 3 mM, respectively. For each gradient, 4 μl of the solution was added to 1 ml of culture medium to form a mixture with a concentration of 120 μM, 40 μM, or 12 μM, respectively. 50 μl of the mixture was added to a corresponding well to a final concentration of 30 μM, 10 μM, or 3 μM, respectively. […] Then, the supernatant was collected, and the levels of TNF-α and IL-6 therein were detected by CBA.

In series [8] the test system is TNF-α release from mouse spleen cells. Briefly: LPS-induced release of TNF-α from mouse spleen cells (CBA). The class given is cell-based. To be noted: 24 hours, read-out: Inhibition rate, TNF-α (Th1).
Text: as §2

Series [9] deals with IL-6 release from THP-1 cells. Nature of the series: LPS-induced release of IL-6 from THP-1 cells (CBA). The format is cell-based. Conditions: Homo sapiens, LPS-stimulated THP-1 cells, 24 hours, read-out: Inhibition rate @10 uM (IL-6). The protocol:
Evaluate the inhibitory effect of the compound on LPS-induced release of IL-6 from THP-1 cells by measuring the level of IL-6 in the cell culture supernatant.
Cell line: THP-1 cell line
4) THP-1 cells were diluted with culture medium to 5×10^5 cells/mL and the diluted cells were added to a 96-well plate (100 μl/well, […]);
1) The compound was dissolved in DMSO to give a solution of 30 mM, and then the solution was 3-fold diluted with DMSO into 4 gradients, which were 30 mM, 10 mM, 3 mM, and 1 mM, respectively. For each gradient, 4 μl of the solution was added to 1 ml of culture medium to form a mixture with a concentration of 120 uM, 40 uM, 12 uM, or 4 uM, respectively. Then, 50 ul of the mixture was added to a well containing cells to a final concentration of 30 uM, 10 uM, 3 uM, or 1 uM, respectively. Dexamethasone was added as a positive drug to a separate well containing cells at a final concentration of 100 nM.
1 mg/ml of a LPS solution was diluted to 800 ng/ml with culture medium, and the diluted solution was added to the cell culture well at 50 ul per well.
The cell culture plate was placed in a 37° C. incubator and incubated for 24 hours. Then, the supernatant was collected, and the level of IL-6 therein was detected by CBA.

Series [10] can be described thus: Solid physical stability test of Crystal Form A under different temperature, humidity and light conditions. The class given is physicochemical. Conditions: Day 10. As for the experimental part:
The vial was sealed with aluminum-foil paper which was punched to generate some small holes to ensure that the sample could fully contact with the ambient air. The 4 samples as prepared were placed under conditions of 25° C./92.5% relative humidity, 60° C., 40° C./75%, and light. The physical stability of the samples on day 10 was examined. […] On day 10, all samples were taken and returned to room temperature. The appearance change of the samples was observed, and the crystal form of the samples was examined by XRPD.

A short description of series [11]: Solid stability test of Crystal Form A under high temperature and high humidity conditions. The format is physicochemical. As for the experimental part: The vial was sealed with aluminum-foil paper which was punched to generate some small holes to ensure that the sample could fully contact with the ambient air. The vial was placed in a chamber with a constant temperature and humidity of 40° C. and 75%. Samples were placed under the above conditions and tested on day 5 and day 10. The test results were compared with the initial test results as measured on day 0.

[12] abbreviates: 25° C./92.5% relative humidity (open).
The mark [13] stands for this setting: 40° C./75% relative humidity (open).
Setting [14] is: stored at −20° C. in a confined space (control sample).
[15] abbreviates: 40° C. and 75% humidity, open, day 5.
Where [16] appears, read: 40° C. and 75% humidity, open, day 10.

Where only a bound is given, the exact number is not on record here.

The inhibition is the change of the read-out against control, counted positive when it falls. As to `C=C1CCC2[C@]3(C)CO[C@@H](C4CCCC4)O[C@@H]3CC[C@@]2(C)[C@@H]1CCOC1CCN(C)CC1.O=C(O)CC(O)(CC(=O)O)C(=O)O` (stereo in doubt) [compound of Formula (II)], the inhibition at 10 µM in series [1] came out at 85.3%; in [2] it was 99.9%; in series [3], 78.2%; in series [5], 51%; in series [7] it was 48%. For the same compound, the “Inhibitory effect on IPF” value in series [4] was “significant inhibitory effect”. For the same compound, the Crystal form result in series [6] (Ethanol) and in series [6] (Methanol) was “Crystal Form A” in each case. Moreover, in [8], the inhibition at 30 µM was 40.3%.

For the compound `C=C1CCC2[C@]3(C)CO[C@@H](C4CCCC4)O[C@@H]3CC[C@@]2(C)[C@@H]1CCOC1CCN(C)CC1` (some centres unmarked) [Compound h], the inhibition at 10 µM in [9] is greater than 60%.

Turning to `C=C1CCC2[C@]3(C)CO[C@@H](C4CCCC4)O[C@@H]3CC[C@@]2(C)[C@@H]1CCOC1CCN(C)CC1.O=C(O)CC(O)(CC(=O)O)C(=O)O` (some centres unmarked) [Crystal Form A], the Characters entry in series [10] (setting [12]), in [10] (setting [13]), in [10] (60° C. (open)), in series [10] (light) and in [10] (setting [14]) was “Off-white powder” each time. Also, the Crystal form entry in series [10] (setting [12]), in series [10] (setting [13]), in series [10] (60° C. (open)), in series [10] (light), in series [10] (setting [14]) and in series [11] (setting [15]) was “Crystal Form A” in each case. For the same compound, the Crystal form result in series [11] (setting [16]) and in series [11] (day 0 (initial)) was “Crystal Form A” in each case. In addition, the Appearance entry in series [11] (setting [15]), in series [11] (setting [16]) and in series [11] (day 0 (initial)) was “Off-white powder” in each case. Moreover, the entries for the “Purity (%)” value in series [11] (setting [15]), in series [11] (setting [16]) and in [11] (day 0 (initial)) were 98.37%, 98.45% and 98.51%, respectively. The “Total impurities (%)” value in series [11] (setting [15]) worked out at 1.61%; in [11] (setting [16]), 1.55%; in series [11] (day 0 (initial)) it was 1.49%.
